Structures can show the parent of a compound that is named as a salt. Where two headings read alike, the source gives them in different places.
Key:
α-1a adrenoreceptor = target: T1, α-1a adrenoreceptor (Bos taurus, UniProt P18130); assay: biochemical; type: binding, bovine; conditions: read-out: Radioligand Binding (Ki, nM) 1a (Bovine)
T1 sequence (P18130 1-466): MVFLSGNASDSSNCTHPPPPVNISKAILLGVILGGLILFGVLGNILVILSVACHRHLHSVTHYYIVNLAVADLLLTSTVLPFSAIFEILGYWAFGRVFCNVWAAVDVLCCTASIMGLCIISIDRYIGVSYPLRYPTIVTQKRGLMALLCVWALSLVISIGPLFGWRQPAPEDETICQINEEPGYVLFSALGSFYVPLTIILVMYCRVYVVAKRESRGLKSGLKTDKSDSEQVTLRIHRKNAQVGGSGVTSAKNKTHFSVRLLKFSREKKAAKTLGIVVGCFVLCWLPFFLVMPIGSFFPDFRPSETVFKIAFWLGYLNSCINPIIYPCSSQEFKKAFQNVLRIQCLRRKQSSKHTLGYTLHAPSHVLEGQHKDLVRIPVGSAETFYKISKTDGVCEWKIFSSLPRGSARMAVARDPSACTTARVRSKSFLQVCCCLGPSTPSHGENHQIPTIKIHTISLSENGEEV
Procedure, shortened: (§1)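 Membranes were prepared from high-density single-cell clones of transfected LTK cells, plus rat submaxillary gland for the α-1A site. Binding was measured by radioligand displacement with scintillation counting.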

α-1d adrenoreceptor = target: T2, α-1d adrenoreceptor (Rattus norvegicus, UniProt P23944); assay: biochemical; type: binding; conditions: read-out: Radioligand Binding (Ki, nM) 1d (Rat)
T2 sequence (P23944 1-561): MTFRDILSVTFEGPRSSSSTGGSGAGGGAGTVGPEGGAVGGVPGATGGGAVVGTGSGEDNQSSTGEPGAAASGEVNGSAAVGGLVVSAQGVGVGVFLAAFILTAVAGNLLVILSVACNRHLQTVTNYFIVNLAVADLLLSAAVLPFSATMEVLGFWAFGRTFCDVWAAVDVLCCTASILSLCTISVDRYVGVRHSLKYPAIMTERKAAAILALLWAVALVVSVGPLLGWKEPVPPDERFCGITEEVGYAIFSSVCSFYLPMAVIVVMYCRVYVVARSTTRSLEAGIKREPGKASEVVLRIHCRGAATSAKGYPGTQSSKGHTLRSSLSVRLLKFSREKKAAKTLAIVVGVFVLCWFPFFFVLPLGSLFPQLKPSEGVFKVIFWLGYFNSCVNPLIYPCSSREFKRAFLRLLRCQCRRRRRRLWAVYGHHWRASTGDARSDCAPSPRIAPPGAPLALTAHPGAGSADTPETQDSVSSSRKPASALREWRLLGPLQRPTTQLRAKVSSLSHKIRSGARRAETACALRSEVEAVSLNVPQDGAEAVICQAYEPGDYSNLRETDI
Procedure, shortened: as §1

[1] = [3H]-prazosin radioligand, cloned receptor in LTK cell membranes

| Compound | Ki (α-1a adrenoreceptor; [1]) [nM] | Ki (α-1d adrenoreceptor; [1]) [nM] | Ki (α-1a adrenoreceptor) [nM] | Ki (α-1d adrenoreceptor) [nM] |
| --- | --- | --- | --- | --- |
| COc1cccc2c1[C@@H]1CN(CCCCn3c(=O)[nH]c4c(sc5ccc(OC(C)C)nc54)c3=O)C[C@H]1CO2 [Example 51, 3-[4-((3aS,9bR)-trans-9-Methoxy-1,2,3,3a,4,9b-hexahydro-[1]-benzopyrano[3,4-c]pyrrol-2-yl)butyl]-8-isopropoxy-pyrido[2',3':4,5]thieno[3,2-d]pyrimidine-2,4(1H,3H)-dione hydrochloride] | 0.064 | 0.371 | – | – |
| COc1cnc2sc3c(=O)n(CCCCN4C[C@@H]5COc6cccc(OC)c6[C@@H]5C4)c(=O)[nH]c3c2n1 [Example 31, 3-[4-((3aR,9bR)-cis-9-Methoxy-1,2,3,3a,4,9b-hexahydro-[1]-benzopyrano[3,4-c]pyrrol-2-yl)butyl]-8-methoxy-pyrazino[2',3':4,5]thieno[3,2-d]pyrimidine-2,4(1H,3H)-dione hydrochloride] | 0.06 | 0.344 | – | – |
| COc1cccc2c1[C@@H]1CN(CCCCn3c(=O)[nH]c4c(sc5ccnc(Cl)c54)c3=O)C[C@@H]1CO2 [Example 48, 3-[4-((3aR,9bR)-cis-9-Methoxy-1,2,3,3a,4,9b-hexahydro-[1]-benzopyrano[3,4-c]pyrrol-2-yl)butyl]-9-chloro-pyrido[3',4';4,5]thieno[3,2-d]pyrimidine-2,4(1H,3H)-dione hydrochloride] | 0.048 | 0.467 | – | – |
| COc1cccc2c1[C@@H]1CN(CCCCn3c(=O)[nH]c4c(sc5nc(C)ccc54)c3=O)C[C@@H]1CO2 [Example 35, 3-[4-((3aR,9bR)-cis-9-Methoxy-1,2,3,3a,4,9b-hexahydro-[1]-benzopyrano[3,4-c]pyrrol-2-yl)butyl]-7-methyl-pyrido[3',2':4,5]thieno[3,2-d]pyrimidine-2,4(1H,3H)-dione hydrochloride] | 0.057 | 0.436 | – | – |
| COc1cccc2c1OC[C@H]1CN(CCn3c(=O)[nH]c4c(sc5ccccc54)c3=O)C[C@@H]21.Cl (racemic) [Example 67, 3-[2-((±)-cis-6-Methoxy-1,2,3,3a,4,9b-hexahydro-[1]-benzopyrano[3,4-c]pyrrol-2-yl)ethyl]-[1]benzthieno[3,2-d]pyrimidine-2,4(1H,3H)-dione hydrochloride] | – | – | 77.2 | 65 |
| COc1cccc2c1OC[C@H]1CN(CCCn3c(=O)[nH]c4c(sc5ccccc54)c3=O)C[C@@H]21.Cl (racemic) [Example 68, 3-[3-((±)-cis-6-Methoxy-1,2,3,3a,4,9b-hexahydro-[1]-benzopyrano[3,4-c]pyrrol-2-yl)propyl]-[1]benzthieno[3,2-d]pyrimidine-2,4(1H,3H)-dione hydrochloride] | – | – | 7.82 | 42.5 |
| COc1cccc2c1[C@H]1CN(CCCCn3c(=O)[nH]c4c(sc5nccnc54)c3=O)C[C@@H]1CO2.Cl.Cl (racemic) [Example 74, 3-[4-((±)-trans-9-Methoxy-1,2,3,3a,4,9b-hexahydro-[1]-benzopyrano[3,4-c]pyrrol-2-yl)butyl]-pyrazino[2',3':4,5]thieno[3,2-d]pyrimidine-2,4(1H,3H)-dione dihydrochloride] | – | – | 1.53 | 2.94 |
| COc1cccc2c1[C@@H]1CN(CCCCn3c(=O)[nH]c4c(sc5c(Cl)nccc54)c3=O)C[C@@H]1CO2 [Example 53, 3-[4-((3aR,9bR)-cis-9-Methoxy-1,2,3,3a,4,9b-hexahydro-[1]-benzopyrano[3,4-c]pyrrol-2-yl)butyl]-6-chloro-pyrido[4',3':4,5]thieno[3,2-d]pyrimidine-2,4(1H,3H)-dione] | 0.037 | 0.664 | – | – |
| COc1cc2[nH]c(=O)n(CCCCN3C[C@@H]4COc5ccccc5[C@@H]4C3)c(=O)c2cc1OC (racemic) [Example 81, 3-[4-((±1-cis-1,2,3,3a,4,9b-hexahydro-[1]-benzopyrano[3,4-c]pyrrol-2-yl)butyl]-6,7-dimethoxy-quinazoline-2,4(1H,3H)-dione hydrochloride] | 0.052 | 0.108 | – | – |

— patent EP0942911B1, “BENZOPYRANOPYRROLE AND BENZOPYRANOPYRIDINE ALPHA-1 ADRENERGIC COMPOUNDS” (Abbott Laboratories, priority 1996, dated 1998)
